Measurements: patent US20060058217A1, “Compositions and methods for treatment of ovarian cancer” (priority 2003, published 2006)

Legend:
Fas ligand = settings: resulting in decreased apoptosis of fetal cell-recognizing T-cells; cited from earlier work
[1] = tested on: splenic cytotoxic T-cells; experiment: redirected lysis assay of spleen cells co-cultured with tumor ascites inhibitory cells; format: cell-based, mouse; settings: antalarmin 0.5 to 1 micromolar; 3 days co-culture in vitro; stimulation with anti-CD3/CD28 monoclonal antibodies
Procedure: To assess the IL-2 responsiveness of T-cells within murine ascites, whole populations of cells were cultured overnight for up to 3 days with IL-2 and then tested for lytic activity using the redirected lysis assay. The assay was similar to the assay described for human cells but an anti-mouse CD3 monoclonal antibody (2C11) was used instead of OKT3. While control splenic cells from non-tumor bearing mice contained cytotoxic T-cell lytic function, the ascites samples had no IL-2 responsive T-cell lytic activity.
Experiments were then performed with antalarmin, a CRH receptor antagonist, to determine if manipulation of CRH activity was involved in the regulation of lytic activity in ovarian carcinoma cells. Spleen cells from normal non-tumor bearing mice were co-cultured in vitro for 3 days with tumor ascites inhibitory cells from the mouse model system. […]
Freshly isolated reproductive tract cells were tested for lytic function by an anti-CD3 mAb (OKT3)-dependent redirected lysis assay (White et al., J. Immunology 158:3017, 1997). […] The chromium released into the supernatant fraction was measured to obtain the percent specific cytotoxicity (% specific lysis), i.e. percent of labeled target cells killed by CD3+ effector cells, using duplicate wells and a titration of 3 effector to target ratios. […]

spleen cells = experiment: splenic cell yields after challenge with ID8 murine ovarian carcinoma cells; format: in vivo, C57BL6 mice
Source text: Normal C57BL6 mice were challenged with ID8 murine ovarian carcinoma cells (intraperitoneally) in the presence of control vehicle (diluent), antalarmin, T-cell stimulation with 2C11 antibody, or antalarmin plus T-cell stimulation. Ten days after challenge, spleen cells were harvested and T-cells were restimulated with either antibody to the T-cell receptor and co-receptor or ID8 tumor cells in the presence of antalarmin, antibody stimulation, or a combination of antalarmin plus antibodies to T-cell receptor and co-receptor. Six days later, cells were harvested and tested for splenic cell yields. […] Treatment with tumor cells plus antalarmin plus antibody stimulation in the in vivo priming phase, followed by restimulation with irradiated tumor cells in the presence of antalarmin, provided conditions also favorable for preventing spleen cell loss induced by tumor cells. Thus, antalarmin was an important factor in preserving immune cells in vivo in the initial phases of ovarian cancer disease.

[2] = tested on: stimulated splenic T-cells (CD3+ and CD8+); experiment: FACS analysis of splenic CD3+ and CD8+ cells co-cultured with tumor ascites inhibitory cells; format: cell-based, mouse; settings: antalarmin 0.5 to 1 micromolar; co-culture with tumor ascites inhibitory cells
[3] = tested on: implantation sites and live embryos; settings: rodents; antalarmin administration; cited from earlier work

CCCCN(CC)c1nc(C)nc2c1c(C)c(C)n2-c1c(C)cc(C)cc1C [antalarmin]
fetal cell Fas ligand expression (Fas ligand): decrease fetal cell Fas ligand expression
cytotoxic T-cell lytic function down-regulated by tumor ascites inhibitory cells [1]: prevented the down-regulation
loss of spleen cells at early stages of ovarian carcinoma disease (spleen cells; ID8 cells intraperitoneally, spleen cells harvested ten days after challenge, restimulated, yields tested six days later): prevented the loss of spleen cells
splenic cell yields (spleen cells; antalarmin added to tumor cells for in vivo priming phase, then non-specific stimulation or no stimulation in restimulation phase): best yields of spleen cells
loss of CD3-stimulated T-cells mediated by murine ascites inhibitory cells [2]: prevent the loss of CD3− stimulated T-cells
number of implantation sites and live embryos [3]: decreased the number of implantation sites an live embryos
